Test results as given in article PMC3681807 (Neuropharmacology, 2013).
“Also recorded” adds a separate entry of the source. Read-outs that look alike come from different tables or passages of the source.

Columns and labels:
[1] = tested on: Male Wistar rats; assay: intravenous self-administration acquisition; type: in vivo, rat; settings: for infusion rate (M) / lever discrimination (M): 0.05 mg/kg/inf, FR5, 7 non-food-restricted sessions; for self-administered drug, Max / self-administered drug, Mean: 0.05 mg/kg/infusion i.v., within 10 training sessions; for level of drug intake from session to session: during acquisition
[2] = tested on: Male Wistar rats; assay: fixed-ratio; type: in vivo, rat
[3] = tested on: Male Wistar rats; assay: progressive-ratio dose-response self-administration testing; type: in vivo, rat; settings: for number of correct lever presses (M) / post-reinforcement pause duration (M) / time to reach breakpoint: PR; for number of correct lever presses (M) / post-reinforcement pause duration (M): 1st 3 hours of session
[4] = tested on: Male Wistar rats; assay: locomotor activity by radiotelemetry after non-contingent s.c. administration; type: in vivo, rat; settings: for maximal increase of activity over baseline and/or vehicle: lower doses
[5] = tested on: Male Wistar rats; assay: body temperature by radiotelemetry after non-contingent s.c. administration; type: in vivo, rat; settings: for effect on body temperature: 0–5.6 mg/kg s.c., MDPV at TA about 23 °C
[6] = tested on: Male Wistar rats; assay: stereotypy after self-administration sessions; type: in vivo, rat; settings: FR5 dose-response testing
[7] = tested on: Male Wistar rats; assay: stereotypy scores after non-contingent administration; type: in vivo, rat
[8] = tested on: dopamine transporter (DAT); settings: rat synaptosomes; ref Baumann et al., 2013; cited from earlier work
[9] = tested on: noradrenaline transporter (NET); settings: rat synaptosomes; ref Baumann et al., 2013; cited from earlier work
[10] = tested on: serotonin transporter (SERT); settings: rat synaptosomes; ref Baumann et al., 2013; cited from earlier work
[11] = tested on: dopamine transporter (DAT); settings: human transporters expressed by HEK 293 cells; ref Simmler et al., 2013; cited from earlier work
[12] = tested on: noradrenaline transporter (NET); settings: human transporters expressed by HEK 293 cells; ref Simmler et al., 2013; cited from earlier work
[13] = tested on: serotonin transporter (SERT); settings: human transporters expressed by HEK 293 cells; ref Simmler et al., 2013; cited from earlier work
[14] = tested on: DAT/SERT; settings: ref Simmler et al., 2013; cited from earlier work
[15] = tested on: monoamine release; settings: ref Baumann et al., 2013, Simmler et al.; cited from earlier work
[16] = tested on: Sprague-Dawley rats; settings: s.c.; ref Baumann et al., 2013; cited from earlier work
[17] = tested on: mice; settings: i.p.; ref Marusich et al., 2012; cited from earlier work
[18] = target: noradrenergic transporter (Homo sapiens, UniProt P23975); assay: biochemical
[19] = target: serotonin transporter (Homo sapiens, UniProt P31645); assay: biochemical
[20] = tested on: alpha adrenergic receptors; settings: ref Roth et al., 2000, Rothman et al., 2001, 2003; cited from earlier work
[21] = FR5, per-infusion dose 0.01 mg/kg
[22] = FR5, per-infusion dose 0.05 mg/kg
[23] = FR5, per-infusion dose 0.10 mg/kg
[24] = FR5, per-infusion dose 0.50 mg/kg
[25] = 1.0 mg/kg s.c., MDPV 30- and 60-min bins, METH 30-, 90- and 120-min bins
[26] = 5.6 mg/kg s.c., summed deviations from mean of vehicle
[27] = 1.0 mg/kg s.c., MDPV 180-min bin, METH 30- to 120-min bins
[28] = FR5, per-infusion dose 0.25 mg/kg

Chain of serotonin transporter (P31645 whole entry): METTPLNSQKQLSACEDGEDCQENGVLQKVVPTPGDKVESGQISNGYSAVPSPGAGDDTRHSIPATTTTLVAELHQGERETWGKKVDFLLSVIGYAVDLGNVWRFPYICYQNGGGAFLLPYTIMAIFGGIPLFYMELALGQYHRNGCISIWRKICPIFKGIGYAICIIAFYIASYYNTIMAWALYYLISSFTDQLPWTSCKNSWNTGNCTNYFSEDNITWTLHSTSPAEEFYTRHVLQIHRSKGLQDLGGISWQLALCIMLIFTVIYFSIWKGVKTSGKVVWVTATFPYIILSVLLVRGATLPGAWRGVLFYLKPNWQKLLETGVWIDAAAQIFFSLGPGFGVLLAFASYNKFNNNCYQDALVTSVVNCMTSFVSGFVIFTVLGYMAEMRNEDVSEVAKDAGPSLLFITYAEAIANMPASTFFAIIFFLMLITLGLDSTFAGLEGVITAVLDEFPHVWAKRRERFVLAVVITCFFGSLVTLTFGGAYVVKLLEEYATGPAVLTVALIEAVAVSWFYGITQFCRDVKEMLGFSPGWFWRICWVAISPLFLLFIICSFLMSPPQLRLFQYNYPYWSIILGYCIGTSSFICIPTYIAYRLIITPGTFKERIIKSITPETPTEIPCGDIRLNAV
Chain of noradrenergic transporter (P23975 whole entry): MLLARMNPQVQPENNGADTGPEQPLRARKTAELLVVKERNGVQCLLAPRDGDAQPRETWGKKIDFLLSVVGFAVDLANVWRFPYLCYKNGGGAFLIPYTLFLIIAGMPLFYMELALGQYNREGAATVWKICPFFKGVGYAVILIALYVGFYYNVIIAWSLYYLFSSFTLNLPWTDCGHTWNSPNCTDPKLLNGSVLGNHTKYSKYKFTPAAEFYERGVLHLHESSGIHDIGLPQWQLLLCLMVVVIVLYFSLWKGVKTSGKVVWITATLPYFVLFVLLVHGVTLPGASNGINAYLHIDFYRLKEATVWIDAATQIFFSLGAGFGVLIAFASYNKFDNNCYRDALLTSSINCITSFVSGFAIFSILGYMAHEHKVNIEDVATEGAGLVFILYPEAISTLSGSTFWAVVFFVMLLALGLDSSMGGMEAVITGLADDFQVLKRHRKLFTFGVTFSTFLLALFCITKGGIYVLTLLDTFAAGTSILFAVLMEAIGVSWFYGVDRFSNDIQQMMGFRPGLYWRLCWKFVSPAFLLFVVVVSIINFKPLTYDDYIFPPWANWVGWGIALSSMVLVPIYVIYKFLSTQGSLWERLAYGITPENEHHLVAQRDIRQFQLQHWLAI

For `CCCC(C(=O)c1ccc2c(c1)OCO2)N1CCCC1` (centres unmarked) [MDPV, 1-(1,3-benzodioxol-5-yl)-2-(1-pyrrolidinyl)-1-pentanone], the “infusion rate (M)” value [1] was 19 inf/hr, the “lever discrimination (M)” value [1] was 86% and the “self-administered drug, Max” value [1] was 5.8 mg/kg/h. For the same compound, the “self-administered drug, Mean” value [1] was 0.9 mg/kg/h, the “level of drug intake from session to session” value [1] was ~ 1 mg/kg/hr and the reward-lever selectivity ([1]; for most rats) was > 80%. The “infusion rate (M)” value [2, 21] was 35 infusions/hour, the “post-reinforcement pause length (M)” value [2, 21] was 48 s and the “infusion rate (M)” value [2, 22] was 13 infusions/hour. The “post-reinforcement pause length (M)” value [2, 22] was 107 s, the “infusion rate (M)” value [2, 23] was 8 infusions/hour and the “post-reinforcement pause length (M)” value [2, 23] was 223 s. The “infusion rate (M)” value [2, 24] was 4 infusions/hour, the “post-reinforcement pause length (M)” value [2, 24] was 572 s and the “potency on drug-reinforced behavior compared with METH” value ([2]; more responding under lowest dose under fixed-ratio schedule) was “greater potency”. The “number of correct lever presses (M)” value ([3]; per-infusion dose 0.01 mg/kg) was 53, the “post-reinforcement pause duration (M)” value ([3]; per-infusion dose 0.01 mg/kg) was 225 s and the “number of correct lever presses (M)” value ([3]; per-infusion dose 0.05 mg/kg) was 610. For the same compound, the “post-reinforcement pause duration (M)” value ([3]; per-infusion dose 0.05 mg/kg) was 110 s, the “number of correct lever presses (M)” value ([3]; per-infusion dose 0.10 mg/kg) was 933 and the “post-reinforcement pause duration (M)” value ([3]; per-infusion dose 0.10 mg/kg) was 179 s. For the same compound, the “number of correct lever presses (M)” value ([3]; per-infusion dose 0.50 mg/kg) was 286, the “post-reinforcement pause duration (M)” value ([3]; per-infusion dose 0.50 mg/kg) was 820 s and the “time to reach breakpoint” value ([3]; per-infusion dose 0.5 mg/kg, all except 2 sessions) was ≤ 5 h. The “time to reach breakpoint” value ([3]; per-infusion doses at or below 0.1 mg/kg, all rats) was “less than 3 hrs”, the “efficacy on drug-reinforced behavior compared with METH” value ([3]; more responding under optimal dose under a progressive-ratio schedule) was “greater efficacy” and the “locomotor activity compared with vehicle” value [4, 25] was “higher”. For the same compound, the “AUC for activity, MDPV vs METH” value [4, 26] was “significantly higher for MDPV than METH”, the “resolution of high-dose suppression of locomotion” value [4] was 120–150 minutes post-injection and the “duration of significant low-dose locomotor stimulation” value [4] was 90 minutes post-injection. For the same compound, the “maximal increase of activity over baseline and/or vehicle” value [4] was “about 4 fold”, the “effect on body temperature” value [5] was “modestly hyper-thermic; also recorded: negligible effect on temperature” and the “body temperature compared to pre-injection baseline” value [5, 27] was “higher”. For the same compound, the “effect on rat body temperature at TA of 30°C” value ([5]; additional data, not shown) was “fails to significantly elevate rat body temperature”, the “body temperature after 1.0 mg/kg compared with 5.6 mg/kg” value ([5]; s.c., TA 23±1 °C, 180-min post-injection time bin) was “higher” and the “average cumulative dose when post-session stereotypy was not observed (M)” value [6] was 0.6 mg/kg per one hour session. The “average cumulative dose when post-session stereotypy was observed (M)” value [6] was 1.4 mg/kg per one hour session, the “time for which stereotypy scores were higher than vehicle” value ([7]; 0.5 mg/kg s.c.) was 15 min and the “time for which stereotypy scores were higher than baseline” value ([7]; 0.5 mg/kg s.c., baseline immediately post-injection) was 15 min. The “time for which stereotypy scores were higher than vehicle” value ([7]; 1.0 mg/kg s.c.) was 60 min, the “time for which stereotypy scores were higher than baseline” value ([7]; 1.0 mg/kg s.c., baseline immediately post-injection) was 60 min and the “time for which stereotypy scores were higher than vehicle” value ([7]; 3.2 mg/kg s.c.) was “entire session”. The “time bins in which stereotypy scores were higher than baseline” value ([7]; 3.2 mg/kg s.c., baseline immediately post-injection) was 15 to 135 min, the “time for which stereotypy scores were higher than vehicle” value ([7]; 5.6 mg/kg s.c.) was “entire session” and the IC50 [8] was 4.1 nM. The IC50 [9] was 26 nM, the IC50 [10] was 3350 nM and the IC50 [11] was 31 nM. The IC50 [12] was 44 nM, the IC50 [13] was 9300 nM and the DAT/SERT inhibition ratio [14] was > 100. The “activity as monoamine releaser” value [15] was “ineffective as a monoamine releaser”, the “doses at which stereotypies were reported” value [16] was “above 0.3 mg/kg” and the “doses after which stereotypies are exhibited” value [17] was 1 to 3 mg/kg. For the same compound, the Ki [18] was 166 nM and the Ki [19] was 1540 nM.

For `CN[C@@H](C)Cc1ccccc1` [METH, d-methamphetamine, reference compound], the “infusion rate (M)” value [1] was 8 inf/hr, the “lever discrimination (M)” value [1] was 83% and the “self-administered drug, Max” value [1] was 1.15 mg/kg/h. The “self-administered drug, Mean” value [1] was 0.4 mg/kg/h, the “level of drug intake from session to session” value [1] was ~ 0.5 mg/kg/hr and the “infusion rate (M)” value [2, 21] was 8 infusions/hour. The “post-reinforcement pause length (M)” value [2, 21] was 94 s, the “infusion rate (M)” value [2, 22] was 6 infusions/hour and the “post-reinforcement pause length (M)” value [2, 22] was 106 s. For the same compound, the “infusion rate (M)” value [2, 23] was 5 infusions/hour, the “post-reinforcement pause length (M)” value [2, 23] was 170 s and the “infusion rate (M)” value [2, 28] was 4 infusions/hour. For the same compound, the “post-reinforcement pause length (M)” value [2, 28] was 162 s, the “number of correct lever presses (M)” value ([3]; per-infusion dose 0.01 mg/kg) was 60 and the “post-reinforcement pause duration (M)” value ([3]; per-infusion dose 0.01 mg/kg) was 276 s. The “number of correct lever presses (M)” value ([3]; per-infusion dose 0.05 mg/kg) was 74, the “post-reinforcement pause duration (M)” value ([3]; per-infusion dose 0.05 mg/kg) was 103 s and the “number of correct lever presses (M)” value ([3]; per-infusion dose 0.10 mg/kg) was 250. For the same compound, the “post-reinforcement pause duration (M)” value ([3]; per-infusion dose 0.10 mg/kg) was 113 s, the “number of correct lever presses (M)” value ([3]; per-infusion dose 0.25 mg/kg) was 135 and the “post-reinforcement pause duration (M)” value ([3]; per-infusion dose 0.25 mg/kg) was 490 s. For the same compound, the “locomotor activity compared with vehicle” value [4, 25] was “higher”, the “locomotor activity compared with vehicle” value ([4]; 5.6 mg/kg s.c., 60–150-min post-injection time bins) was “lower” and the “resolution of high-dose suppression of locomotion” value [4] was 150–180 minutes post-injection. The “duration of significant low-dose locomotor stimulation” value [4] was 120 minutes post-injection, the “maximal increase of activity over baseline and/or vehicle” value [4] was “about 4 fold” and the “effect on body temperature” value [5] was “increased monotonically”. For the same compound, the “body temperature compared to pre-injection baseline” value [5, 27] was “higher”, the “body temperature compared to vehicle” value ([5]; 5.6 mg/kg s.c., 60- to 150-min time bins) was “higher” and the “body temperature compared to pre-injection baseline” value ([5]; 5.6 mg/kg s.c., 60- to 90-min post-injection time bins) was “higher”. The “AUC for body temperature, METH vs MDPV” value [5, 26] was “higher for METH than for MDPV”, the “average body temperature as a function of dose” value ([5]; 20±2 °C TA) was “did not vary as a function of drug condition” and the “average body temperature as a function of dose” value ([5]; TA of 25±2 °C, doses in mg/kg s.c.) was 5.6 > 1.0 > vehicle. The DAT/SERT inhibition ratio [14] was > 10 and the binding affinity [20] was “low affinity binding”.

For `COC(=O)[C@H]1[C@@H](OC(=O)c2ccccc2)C[C@@H]2CC[C@H]1N2C` [cocaine], the DAT/SERT inhibition ratio [14] is listed as 3.1.
